Measurements taken from patent US6579882B2, “Cell adhesion-inhibiting antiinflammatory compounds” (Abbott Laboratories, priority 1998, dated 2003).

Experiments:
Type in all cases: cell-based
Conditions in all cases: 1 μM compound, primary human umbilical vein endothelial cells, compound 24 hours, then TNF 5 ng/mL 6 hours; for inhibition at 1 µM: Homo sapiens, Endothelial cell
E-Selectin = test: CAM ELISA: E-selectin expression on TNF-stimulated HUVECs
Method: (§1) Pooled primary human umbilical vein endothelial cells (HtVEC's) (Clonetics) between passages 3 and 7 were plated in 96-well plates (Costar), 100 μL/well, 5×10^4 cells/mL in Clonetics EBM/2% FBS/EGF/Bovine brain extract/gentamicin in the absence of hydrocortisone. The following day, compounds of the invention were added in 10 μL/well medium, and the plates were incubated at 37° C. 24 hours after compound addition, TNF (Gibco/BRL) in 10 μL/well medium was added to a final concentration of 5 ng/mL, and the cells were incubated an additional 6 hours at 37° C. Then media was removed, and the plates were washed once with D-PBS (Gibco/BRL) and treated with primary antibodies (Becton Dickinson, City), 100 μL/well in D-PBS/2% BSA (Sigma)/0.01% azide. Primary antibodies at an initial concentration of 1 mg/mL were used at the following dilutions: anti-ELAM-1, 1:2000, anti-ICAM-1, 1:2000 and anti-VACM-1, 1:3000. Plates were stored overnight at 4° C., washed 3 times with D-PBS, and treated with secondary antibody (Jackson Labs), 100 μL/well 1:8000 dilution HRP-conjugated donkey anti-mouse IgG(H+L) in D-PBS/2%BSA. Plates were incubated a minimum of 1 hour at room temperature, washed 3 times with D-PBS and treated with 100 μL of orhto-phenylene diamine-2 HCl reagent per well. Plates were developed approximately 15 minutes and neutralized with 100 μL/well 1N sulfuric acid. Absorbance was read at 490 nm.

VCAM-1 = test: CAM ELISA: VCAM-1 expression on TNF-stimulated HUVECs
Method: as §1

ICAM-1 = test: CAM ELISA: ICAM-1 expression on TNF-stimulated HUVECs
Method: as §1

Compound	inhibition at 1 µM (E-Selectin) [%]	inhibition at 1 µM (VCAM-1) [%]	inhibition at 1 µM (ICAM-1) [%]	CAM ELISA % Inhibition at 1 μM E-Selectin (E-Selectin) [%]	CAM ELISA % Inhibition at 1 μM VCAM-1 (VCAM-1) [%]	CAM ELISA % Inhibition at 1 μM ICAM-1 (ICAM-1) [%]
CNC(=O)c1cc2c(Oc3ccc(-c4cccs4)cc3)cncc2s1 [Example 222, N-Methyl-4-[4-(2-thienyl)phenoxy]thieno[2,3-c]pyridine-2-carboxamide]	40	44	42	–	–	–
NC(=O)c1cc2c(C=Cc3ccccc3)cncc2s1 [Example 329, 4-(2-Phenylethenyl)thieno[2,3-c]pyridine-2-carboxamide]	72	64	62	–	–	–
Nc1nnc(-c2cc3c(Oc4ccc(Br)cc4)cncc3s2)o1 [Example 276, 5-[4-(4-Bromophenoxy)thieno[2,3-c]pyridin-2-yl]-1,3,4-oxadiazol-2-ylamine]	66	52	61	–	–	–
CNC(=O)c1cc2c(Oc3ccc(Cl)cc3)cnc(Cl)c2s1 [Example 312, 7-Chloro-4-(4-chlorophenoxy)-N-methylthieno[2,3-c]pyridine-2-carboxamide]	64	42	76	–	–	–
O=C(NCCN1CCOCC1)c1cc2c(Oc3ccc(Cl)cc3)cncc2s1 [Example 119, 4-(4-chlorophenoxy)-N-[2-(4-morpholinyl)ethyl]thieno[2,3-c]pyridine-2-carboxamide]	59	36	61	–	–	–
Cc1ccc(Sc2c(/C=C/C(N)=O)sc3cnccc23)cc1 [Example 32]	–	–	–	75	41	63
C=C(c1ccccc1)c1cncc2sc(C(N)=O)cc12 [Example 102, 4-(1-phenylethenpl)thieno[2,3-c]pyridine-2-carboxamide]	–	–	–	78	53	68
CCOC(=O)c1cccc(Oc2cncc3sc(C(N)=O)cc23)c1 [Example 79, ethyl 3-[[2-(aminocarbonyl)thieno[2,3-c]pyridin-4-yl]oxy]benzoate]	66	38	63	–	–	–
Cc1ccc(Sc2cncc3sc(C(N)=O)cc23)cc1 [Example 19, 4-[(4-methylphenyl)thio]thieno[2,3-c]pyridine-2-carboxamide]	79	41	67	–	–	–
CNC(=O)c1cc2c(Oc3ccc(-n4cccn4)cc3)cncc2s1 [Example 218, N-Methyl-4-[4-(1H-pyrazol-1-yl)phenoxy]thieno[2,3-c]pyridine-2-carboxamide]	66	51	64	–	–	–
N#Cc1ccc(Oc2cncc3sc(C(N)=O)cc23)cc1 [Example 187, 4-(4-Cyanophenoxy)thieno[2,3-c]pyridine-2-carboxamide]	78	54	72	–	–	–
NC(=O)c1cc2c(Oc3ccc(-n4ccnc4)cc3)cncc2s1 [Example 217, 4-[4-(1H-Imidazol-1-yl)phenoxy]thieno[2,3-c]pyridine-2-carboxamide]	64	42	63	–	–	–
CNC(=O)c1nc2cncc(Oc3ccc(C)cc3)c2s1 [Example 325]	–	–	–	76	42	68
NC(=O)c1cc2c(Oc3ccc(Cl)cc3)cnc(Cl)c2s1 [Example 311, 7-Chloro-4-(4-chlorophenoxy)thieno[2,3-c]pyridine-2-carboxamide]	72	36	77	–	–	–
Clc1ccc(Oc2cncc3sc(-c4ncon4)cc23)cc1 [Example 287, 4-(4-Chlorophenoxy)-2-(1,2,4-oxadiazol-3-yl)thieno[2,3-c]pyridine]	49	27	49	–	–	–
NC(=O)c1cc2c(C(=O)Nc3ccc(Cl)cc3)cncc2s1 [Example 238, N-4-(4-Chlorophenyl)thieno[2,3-c]pyridine-2,4-dicarboxamide]	–	–	–	46	17	47

Compound	inhibition at 1 µM (E-Selectin) [%]	inhibition at 1 µM (VCAM-1) [%]	inhibition at 1 µM (ICAM-1) [%]	CAM ELISA % Inhibition at 1 μM E-Selectin (E-Selectin) [%]	CAM ELISA % Inhibition at 1 μM VCAM-1 (VCAM-1) [%]	CAM ELISA % Inhibition at 1 μM ICAM-1 (ICAM-1) [%]
CNC(=O)c1cc2c(Oc3ccc(C(C)=O)cc3)cncc2s1 [Example 202, 4-(4-Acetylphenoxy)-N-methylthieno[2,3-c]pyridine-2-carboxamide]	80	49	68	–	–	–
CNC(=O)c1cc2c(Oc3ccc(OC(F)(F)F)cc3)cncc2s1 [Example 227, N-Methyl-4-[4-(trifluoromethoxy)phenoxy]thieno[2,3-c]pyridine-2-carboxamide]	61	44	62	–	–	–
O=C(NCCO)c1cc2c(Oc3ccc(C(F)(F)F)cc3)cnc(Cl)c2s1 [Example 320]	–	–	–	64	55	67
NC(=O)c1cc2c(Oc3cccc(C(F)(F)F)c3)cncc2s1 [Example 184, 4-[3-(Trifluoromethyl)phenoxy]thieno[2,3-c]pyridine-2-carboxamide]	52	30	56	–	–	–
Cc1occc1Sc1cncc2sc(C(N)=O)cc12 [Example 53, 4-[(2-methyl-3-fiuranyl)thio]thieno[2,3-c]piridine-2-carboxamide]	–	–	–	70	48	67
CC(C)OC(=O)OC[n+]1cc(Oc2ccc(Cl)cc2)c2cc(C(N)=O)sc2c1 [Example 233, 2-(Aminocarbonyl)-4-(4-chlorophenoxy)-6-{[(isopropoxycarbonyl)oxy]methyl}thieno[2,3-c]pyridin-6-ium]	–	–	–	74	62	79
CNC(=O)c1cc2c(Oc3ccc(-c4cncn4C)cc3)cncc2s1 [Example 224, N-Methyl-4-[4-(1-methyl-1H-imidazol-5-yl)phenoxy]thieno[2,3-c]pyridine-2-carboxamide]	61	41	55	–	–	–
Clc1ccc(Oc2cncc3sc(-c4nnn[nH]4)cc23)cc1 [Example 282A, 4-(4-Chlorophenoxy)-2-(1,2,3,4-tetrazol-5-yl)thieno[2,3-c]pyridine]	8	5	15	–	–	–
OCC(O)c1cc2c(Oc3ccc(Br)cc3)cncc2s1 (stereo not drawn) [Example 255, 1-[4-(4-Bromophenoxy)thieno[2,3-c]pjridin-2-yl]-1,2-ethanediol]	–	–	–	67	19	65
CNC(=O)c1cc2c(Oc3ccc(-c4ccccc4)cc3)cncc2s1 [Example 223]	–	–	–	34	36	36
CNC(=O)c1cc2c(Oc3ccc(-n4cncn4)cc3)cncc2s1 [Example 219, N-Methyl-4-[4-(1H-1,2,4-triazol-1-yl)phenoxy]thieno[2,3-c]pyridine-2-carboxamide]	62	50	68	–	–	–
CN1CCN(C(=O)c2cc3c(Oc4ccc(Cl)cc4)cncc3s2)CC1 [Example 110, 1-[[4-(4-chlorophenoxy)thieno[2,3-c]pyridin-2-yl]carbonyl]-4-methylpiperazine]	44	39	48	–	–	–
NS(=O)(=O)c1cc2c(Oc3ccc(Cl)cc3)cncc2s1 [Example 120, 4-(4-Chlorophenoxy)thieno[2,3-c]pyridine-2-sulfonamide]	72	49	72	–	–	–
CCOCCOCCOCC(F)(F)c1ccc(Oc2cncc3sc(C(=O)NC)cc23)cc1 [Example 230, 4-(4-[2-[2-(2-Ethoxyethoxy)ethoxy]-1,1-difluoroethyl]phenoxy)-N-methylthieno[2,3-c]pyridine-2-carboxamide]	56	45	53	–	–	–
CNC(=O)c1cc2c(Oc3ccc(-c4noc(C(F)(F)F)n4)cc3)cncc2s1 [Example 220, N-Methyl-4-[4-[5-(trifluoromethyl)-1,2,4-oxadiazol-3-yl]phenoxy]thieno[2,3-c]pyridine-2-carboxamide]	60	32	51	–	–	–
O=C(O)CNC(=O)c1cc2c(Oc3ccc(Cl)cc3)cncc2s1 [Example 159]	–	–	–	30	13	45
